In patent US20040234610A1, “Medical device and method for inhalation of aerosolized drug with heliox” (priority 2001, published 2004):

How the values were obtained:
[1] = Nebulized particle size distribution by Anderson Cascade Impactor, Y design, drug suspension and different heliox flow rates; format: physicochemical
Procedure: Additional tests were performed with the ACI described in Example 3 in order to assess the device's ability to nebulize a liquid drug suspension and to assess various heliox flow rate combinations. […]

asthma patients = experiment: Pilot study, albuterol nebulized with heliox vs oxygen through open mouthpiece and T-piece system, spirometry; format: in vivo, human; conditions: open mouthpiece and T-piece adapter system
Procedure: A pilot study was conducted using an open system, including a mouthpiece and T-piece adapter ([…], Allegiance Healthcare Corp., McGaw Park, Ill.), to nebulize albuterol.

[2] = 6-6 lpm heliox (nebulizer-side port)
[3] = 10-10 lpm heliox (nebulizer-side port)
[4] = 10-18 lpm heliox (nebulizer-side port)
[5] = 18-0 lpm heliox (nebulizer-side port)
[6] = 18-10 lpm heliox (nebulizer-side port)
[7] = trial 6-6: heliox 6 L/min nebulizer, 6 L/min side port
[8] = trial 10-10: heliox 10 L/min nebulizer, 10 L/min side port
[9] = trial 10-18: heliox 10 L/min nebulizer, 18 L/min side port
[10] = trial 18-0: heliox 18 L/min nebulizer, 0 L/min side port
[11] = trial 18-10: heliox 18 L/min nebulizer, 10 L/min side port

CC(C)(C)NCC(O)c1ccc(O)c(CO)c1 (stereo not drawn) [albuterol]
0.7 ≦ Mean Fraction < 5.8 μm [1, 2]: 0.755 | Mean Fraction < 0.7 μm [1, 2]: 0.112 | Mean Fraction ≧ 5.8 μm [1, 2]: 0.134 | 0.7 ≦ Mean Fraction < 5.8 μm [1, 3]: 0.773 | Mean Fraction < 0.7 μm [1, 3]: 0.159 | Mean Fraction ≧ 5.8 μm [1, 3]: 0.068 | 0.7 ≦ Mean Fraction < 5.8 μm [1, 4]: 0.626 | Mean Fraction < 0.7 μm [1, 4]: 0.306 | Mean Fraction ≧ 5.8 μm [1, 4]: 0.068 | 0.7 ≦ Mean Fraction < 5.8 μm [1, 5]: 0.658 | Mean Fraction < 0.7 μm [1, 5]: 0.224 | Mean Fraction ≧ 5.8 μm [1, 5]: 0.118 | 0.7 ≦ Mean Fraction < 5.8 μm [1, 6]: 0.609 | Mean Fraction < 0.7 μm [1, 6]: 0.317 | Mean Fraction ≧ 5.8 μm [1, 6]: 0.075 | Fraction, Adapter [1, 7]: 0.033 | Fraction, Collar [1, 7]: 0.034 | Fraction, Filter (cut size <0.40 μm) [1, 7]: 0.045 | Fraction, Stage 0 (cut size 9.00 μm, midpt 10.70 μm) [1, 7]: 0.023 | Fraction, Stage 1 (cut size 5.80 μm, midpt 7.22 μm) [1, 7]: 0.015 | Fraction, Stage 2 (cut size 4.70 μm, midpt 5.22 μm) [1, 7]: 0.013 | Fraction, Stage 3 (cut size 3.30 μm, midpt 3.94 μm) [1, 7]: 0.042 | Fraction, Stage 4 (cut size 2.10 μm, midpt 2.63 μm) [1, 7]: 0.171 | Fraction, Stage 6 (cut size 0.70 μm, midpt 0.88 μm) [1, 7]: 0.130 | Fraction, Stage 7 (cut size 0.40 μm, midpt 0.53 μm) [1, 7]: 0.067 | Fraction, Tee Piece [1, 7]: 0.015 | Fraction, Throat (USP) (cut size >9.00 μm, midpt 24.49 μm) [1, 7]: 0.013 | Fraction, Adapter [1, 8]: 0.018 | Fraction, Collar [1, 8]: 0.018 | Fraction, Filter (cut size <0.40 μm) [1, 8]: 0.053 | Fraction, Stage 0 (cut size 9.00 μm, midpt 10.70 μm) [1, 8]: 0.012 | Fraction, Stage 1 (cut size 5.80 μm, midpt 7.22 μm) [1, 8]: 0.011 | Fraction, Stage 2 (cut size 4.70 μm, midpt 5.22 μm) [1, 8]: 0.002 | Fraction, Stage 4 (cut size 2.10 μm, midpt 2.63 μm) [1, 8]: 0.171 | Fraction, Stage 6 (cut size 0.70 μm, midpt 0.88 μm) [1, 8]: 0.202 | Fraction, Stage 7 (cut size 0.40 μm, midpt 0.53 μm) [1, 8]: 0.106 | Fraction, Tee Piece [1, 8]: 0.009 | Fraction, Throat (USP) (cut size >9.00 μm, midpt 24.49 μm) [1, 8]: 0.002 | Fraction, Adapter [1, 9]: 0.015 | Fraction, Collar [1, 9]: 0.011 | Fraction, Filter (cut size <0.40 μm) [1, 9]: 0.113 | Fraction, Stage 0 (cut size 9.00 μm, midpt 10.70 μm) [1, 9]: 0.011 | Fraction, Stage 1 (cut size 5.80 μm, midpt 7.22 μm) [1, 9]: 0.006 | Fraction, Stage 2 (cut size 4.70 μm, midpt 5.22 μm) [1, 9]: 0.007 | Fraction, Stage 3 (cut size 3.30 μm, midpt 3.94 μm) [1, 9]: 0.008 | Fraction, Stage 4 (cut size 2.10 μm, midpt 2.63 μm) [1, 9]: 0.077 | Fraction, Stage 6 (cut size 0.70 μm, midpt 0.88 μm) [1, 9]: 0.232 | Fraction, Stage 7 (cut size 0.40 μm, midpt 0.53 μm) [1, 9]: 0.192 | Fraction, Tee Piece [1, 9]: 0.024 | Fraction, Throat (USP) (cut size >9.00 μm, midpt 24.49 μm) [1, 9]: 0.001 | Fraction, Adapter [1, 10]: 0.027 | Fraction, Collar [1, 10]: 0.011 | Fraction, Filter (cut size <0.40 μm) [1, 10]: 0.088 | Fraction, Stage 0 (cut size 9.00 μm, midpt 10.70 μm) [1, 10]: 0.026 | Fraction, Stage 1 (cut size 5.80 μm, midpt 7.22 μm) [1, 10]: 0.047 | Fraction, Stage 2 (cut size 4.70 μm, midpt 5.22 μm) [1, 10]: 0.013 | Fraction, Stage 3 (cut size 3.30 μm, midpt 3.94 μm) [1, 10]: 0.029 | Fraction, Stage 4 (cut size 2.10 μm, midpt 2.63 μm) [1, 10]: 0.124 | Fraction, Stage 6 (cut size 0.70 μm, midpt 0.88 μm) [1, 10]: 0.184 | Fraction, Stage 7 (cut size 0.40 μm, midpt 0.53 μm) [1, 10]: 0.137 | Fraction, Tee Piece [1, 10]: 0.005 | Fraction, Throat (USP) (cut size >9.00 μm, midpt 24.49 μm) [1, 10]: 0.002 | Fraction, Adapter [1, 11]: 0.009 | Fraction, Collar [1, 11]: 0.012 | Fraction, Filter (cut size <0.40 μm) [1, 11]: 0.106 | Fraction, Stage 0 (cut size 9.00 μm, midpt 10.70 μm) [1, 11]: 0.011 | Fraction, Stage 1 (cut size 5.80 μm, midpt 7.22 μm) [1, 11]: 0.026 | Fraction, Stage 2 (cut size 4.70 μm, midpt 5.22 μm) [1, 11]: 0.006 | Fraction, Stage 3 (cut size 3.30 μm, midpt 3.94 μm) [1, 11]: 0.016 | Fraction, Stage 4 (cut size 2.10 μm, midpt 2.63 μm) [1, 11]: 0.066 | Fraction, Stage 6 (cut size 0.70 μm, midpt 0.88 μm) [1, 11]: 0.207 | Fraction, Stage 7 (cut size 0.40 μm, midpt 0.53 μm) [1, 11]: 0.211 | Fraction, Tee Piece [1, 11]: 0.016 | Fraction, Throat (USP) (cut size >9.00 μm, midpt 24.49 μm) [1, 11]: 0.001 | differences in spirometry between heliox and oxygen albuterol nebulization (asthma patients): no differences in spirometry between heliox and oxygen albuterol nebulization were detected
